In brackets after ≈: the same amount, converted by molar mass. Square brackets hold non-standard residues; d marks the D form. Peptide text beside a SMILES is read from it. * marks the point of attachment. d(aIle) = CC[C@H](C)[C@@H](N)C(=O)O; hArg = N=C(N)NCCCC[C@H](N)C(=O)O; Lys(Me) = CNCCCC[C@H](N)C(=O)O; Lauroyl = CCCCCCCCCCCC(=O)*; Pyruvoyl = CC(=O)C(=O)*; Pentanoyl = CCCCC(=O)*; Propionyl = CCC(=O)*; Bz = O=C(c1ccccc1)*; For = O=C*
Columns and labels:
[1] = tested on: Dirofilaria immitis microfilariae; assay: microbe, parasite or virus in culture; settings: 72 h, read-out: D. immitis mf Motility EC50, ~72 h
[2] = tested on: human colorectal (SW620) carcinoma cells; assay: cells; settings: SW-620, read-out: Human Colorectal Carcinoma Cells (SW620) IC50
[3] = tested on: Haemonchus contortus L1–L3 larvae; assay: microbe, parasite or virus in culture; settings: 96 h, read-out: H. contortus L1–L3 Larvae Development EC50
[4] = tested on: Haemonchus contortus L1–L3 larvae; settings: pure compounds; four days
[5] = tested on: Dirofilaria immitis microfilariae; settings: pure compounds; ~72 h
[6] = tested on: human colorectal (SW620) carcinoma cells; settings: MTT
Staphylococcus aureus = tested on: Staphylococcus aureus; design: method as in PMID 24713874; settings: cited from earlier work
Erwinia amylovora = tested on: Erwinia amylovora; design: method as in PMID 24317473; settings: at 25 μM; cited from earlier work

Row | SMILES | EC50 [1] | IC50 [2] | EC50 [3] | H. contortus L1–L3 Larvae Development EC50 [4] | D. immitis mf Motility EC50 [5] | Human Colorectal Carcinoma Cells (SW620) IC50 [6] | Staphylococcus aureus MIC (Staphylococcus aureus) | inhibition of Erwinia amylovora (Erwinia amylovora)
1 | CCCCCC[C@H]1C(=O)O[C@H](C)[C@H](NC(=O)c2cccc(NC=O)c2O)C(=O)O[C@@H](C)[C@@H]1OC(=O)C(C)C [antimycin A2a (2), antimycin A2a] | 0.0013 to 0.0021 µg/mL (≈ 0.00243 to 0.00393 µM) | 0.08 µg/mL (≈ 0.15 µM) | 1.8 µg/mL (≈ 3.37 µM) | – | – | – | – | –
2 | CCC(=O)NCCCC[C@@H]1NC(=O)[C@@H]([C@@H](C)CC)NC(=O)[C@H]([C@@H](C)CC)NC(=O)[C@@H](C)NC(=O)[C@H]([C@@H](C)CC)NC(=O)[C@@H](CC(C)C)NC(=O)[C@@H](Cc2ccccc2)NC(=O)[C@H]([C@@H](C)CC)NC1=O [acyl-surugamide A3 (7), acyl-surugamide A3] (cyclo(I[d(aIle)]K(Propionyl)I[dF][dL]I[dA])) | – | – | – | >25 µg/mL | 3.3 µg/mL | > 30 µg/mL | – | –
3 | CC[C@H](C)[C@@H]1NC(=O)[C@H](CCCCNC(=O)C(C)=O)NC(=O)[C@@H]([C@@H](C)CC)NC(=O)[C@H]([C@@H](C)CC)NC(=O)[C@@H](C)NC(=O)[C@H]([C@@H](C)CC)NC(=O)[C@@H](CC(C)C)NC(=O)[C@@H](Cc2ccccc2)NC1=O [acyl-surugamide A4 (8), acyl-surugamide A4] (cyclo(I[d(aIle)]K(Pyruvoyl)I[dF][dL]I[dA])) | – | – | – | >25 µg/mL | 16.0 µg/mL | >30 µg/mL | – | –
4 | CC[C@H](C)[C@@H]1NC(=O)[C@H](C)NC(=O)[C@@H]([C@@H](C)CC)NC(=O)[C@H]([C@@H](C)CC)NC(=O)[C@@H](C)NC(=O)[C@H]([C@@H](C)CC)NC(=O)[C@@H](CC(C)C)NC(=O)[C@@H](Cc2ccccc2)NC1=O [surugamide S3 (11), surugamide S3] (cyclo(I[d(aIle)]AI[dF][dL]I[dA])) | – | – | – | >25 µg/mL | > 25 µg/mL | – | – | –
5 | CC[C@H](C)[C@@H]1NC(=O)[C@H](CCCCNC(=O)c2ccccc2)NC(=O)[C@@H]([C@@H](C)CC)NC(=O)[C@H]([C@@H](C)CC)NC(=O)[C@@H](C)NC(=O)[C@H]([C@@H](C)CC)NC(=O)[C@@H](CC(C)C)NC(=O)[C@@H](Cc2ccccc2)NC1=O [acyl-surugamide AS3 (15), acyl-surugamide AS3] (cyclo(I[d(aIle)]K(Bz)I[dF][dL]I[dA])) | – | – | – | >25 µg/mL | 3.4 µg/mL | >30 µg/mL | – | –
6 | CCCC[C@H]1C(=O)O[C@H](C)[C@H](NC(=O)c2cccc(NC=O)c2O)C(=O)O[C@@H](C)[C@@H]1OC(=O)C(C)C [antimycin A4a (1), antimycin A4a] | 0.0013 to 0.0021 µg/mL (≈ 0.00257 to 0.00415 µM) | 0.061 µg/mL (≈ 0.12 µM) | 3.5 µg/mL (≈ 6.91 µM) | – | – | – | – | –
7 | CCCCCCCCCCCC(=O)NCCCC[C@@H]1NC(=O)[C@@H]([C@@H](C)CC)NC(=O)[C@H]([C@@H](C)CC)NC(=O)[C@@H](C)NC(=O)[C@H]([C@@H](C)CC)NC(=O)[C@@H](CC(C)C)NC(=O)[C@@H](Cc2ccccc2)NC(=O)[C@H]([C@@H](C)CC)NC1=O [acyl-surugamide AS2 (14), acyl-surugamide AS2] (cyclo(I[d(aIle)]K(Lauroyl)I[dF][dL]I[dA])) | – | – | – | >25 µg/mL | >25 µg/mL | >30 µg/mL | – | –
8 | CC[C@H](C)[C@@H]1NC(=O)[C@H](CCCNC(=N)N)NC(=O)[C@@H]([C@@H](C)CC)NC(=O)[C@H]([C@@H](C)CC)NC(=O)[C@@H](C)NC(=O)[C@H]([C@@H](C)CC)NC(=O)[C@@H](CC(C)C)NC(=O)[C@@H](Cc2ccccc2)NC1=O [surugamide S2 (10), surugamide S2] (cyclo(I[d(aIle)]RI[dF][dL]I[dA])) | – | – | – | >25 µg/mL | > 25 µg/mL | – | – | –
9 | CCCCC(=O)NCCCC[C@@H]1NC(=O)[C@@H]([C@@H](C)CC)NC(=O)[C@H]([C@@H](C)CC)NC(=O)[C@@H](C)NC(=O)[C@H]([C@@H](C)CC)NC(=O)[C@@H](CC(C)C)NC(=O)[C@@H](Cc2ccccc2)NC(=O)[C@H]([C@@H](C)CC)NC1=O [acyl-surugamide AS1 (13), acyl-surugamide AS1] (cyclo(I[d(aIle)]K(Pentanoyl)I[dF][dL]I[dA])) | – | – | – | >25 µg/mL | 21 µg/mL | >30 µg/mL | – | –
10 | CC[C@H](C)[C@@H]1NC(=O)[C@H](CCCCNC(C)=O)NC(=O)[C@@H]([C@@H](C)CC)NC(=O)[C@H]([C@@H](C)CC)NC(=O)[C@@H](C)NC(=O)[C@H]([C@@H](C)CC)NC(=O)[C@@H](CC(C)C)NC(=O)[C@@H](Cc2ccccc2)NC1=O [acyl-surugamide A2 (6), acyl-surugamide A2] (cyclo(I[d(aIle)]K(Ac)I[dF][dL]I[dA])) | – | – | – | >25 µg/mL | >25 µg/mL | >30 µg/mL | – | –
11 | CC[C@H](C)[C@@H]1NC(=O)[C@H](CCCCNC=O)NC(=O)[C@@H]([C@@H](C)CC)NC(=O)[C@H]([C@@H](C)CC)NC(=O)[C@@H](C)NC(=O)[C@H]([C@@H](C)CC)NC(=O)[C@@H](CC(C)C)NC(=O)[C@@H](Cc2ccccc2)NC1=O [acyl-surugamide A1 (5), acyl-surugamide A1] (cyclo(I[d(aIle)]K(For)I[dF][dL]I[dA])) | – | – | – | >25 µg/mL | >25 µg/mL | >30 µg/mL | – | –
12 | CC[C@H](C)[C@@H]1NC(=O)[C@H](CCCCNC(=N)N)NC(=O)[C@@H]([C@@H](C)CC)NC(=O)[C@H]([C@@H](C)CC)NC(=O)[C@@H](C)NC(=O)[C@H]([C@@H](C)CC)NC(=O)[C@@H](CC(C)C)NC(=O)[C@@H](Cc2ccccc2)NC1=O [surugamide S4 (12), surugamide S4] (cyclo(I[d(aIle)][hArg]I[dF][dL]I[dA])) | – | – | – | >25 µg/mL | >25 µg/mL | – | – | –
13 | CC[C@H](C)[C@@H]1NC(=O)[C@H](CCCCNC)NC(=O)[C@@H]([C@@H](C)CC)NC(=O)[C@H]([C@@H](C)CC)NC(=O)[C@@H](C)NC(=O)[C@H]([C@@H](C)CC)NC(=O)[C@@H](CC(C)C)NC(=O)[C@@H](Cc2ccccc2)NC1=O [surugamide K (4), surugamide K] (cyclo(I[d(aIle)][Lys(Me)]I[dF][dL]I[dA])) | – | – | – | >25 µg/mL | >25 µg/mL | >30 µg/mL | – | –
14 | CC[C@H](C)[C@@H]1NC(=O)[C@H](CCCCN)NC(=O)[C@@H]([C@@H](C)CC)NC(=O)[C@H]([C@@H](C)CC)NC(=O)[C@@H](C)NC(=O)[C@H]([C@@H](C)CC)NC(=O)[C@@H](CC(C)C)NC(=O)[C@@H](Cc2ccccc2)NC1=O [surugamide A (3), surugamide A] (cyclo(I[d(aIle)]KI[dF][dL]I[dA])) | – | – | – | >25 µg/mL | >25 µg/mL | >30 µg/mL | 10 µM | 40%
15 | CC[C@@H](C)[C@H]1NC(=O)[C@H]([C@@H](C)CC)NC(=O)[C@@H](C)NC(=O)[C@H]([C@@H](C)CC)NC(=O)[C@@H](CC(C)C)NC(=O)[C@@H](Cc2ccccc2)NC(=O)[C@H]([C@@H](C)CC)NC(=O)[C@H](CCCCN)NC1=O [surugamide S1 (9), cyclo[-L-Ile^1-D-Ile^2-L-Lys^3-L-Ile^4-D-Phe^5-D-Leu^6-L-Ile^7-D-Ala^8-]] (cyclo(I[dI]KI[dF][dL]I[dA])) | – | – | – | >25 µg/mL | >25 µg/mL | – | – | –

Source: publication PMC11277932, “Australian Marine and Terrestrial Streptomyces-Derived Surugamides, and Synthetic Analogs, and Their Ability to Inhibit Dirofilaria immitis (Heartworm) Motility” (Marine Drugs, 2024)
